Reference: patent publication US20240150290A1, “HETEROCYCLIC P2Y14 RECEPTOR ANTAGONISTS” (priority 2021, published 2024)
Like-named read-outs stand apart in the source and are kept apart here. Marks after values point to notes of the source that are not given here.

Assays:
[1] = cited from earlier work
CYP2C9 [2] = biological target: T1, CYP2C9 (Homo sapiens, UniProt P11712); settings: Table 4; Yu et al.; cited from earlier work
[3] = human, cited from earlier work
CYP2C19 [4] = biological target: T2, CYP2C19 (Homo sapiens, UniProt P33261); settings: Table 4; Yu et al.; cited from earlier work
[5] = human, cited from earlier work; remark: listed apart in the source
[6] = mouse, cited from earlier work
[7] = mouse, cited from earlier work; remark: listed apart in the source
[8] = Table 4; Yu et al.; cited from earlier work
CYP1A2 [9] = biological target: T3, CYP1A2 (Homo sapiens, UniProt P05177); settings: Table 4; Yu et al.; cited from earlier work
T3 sequence (P05177 1-516): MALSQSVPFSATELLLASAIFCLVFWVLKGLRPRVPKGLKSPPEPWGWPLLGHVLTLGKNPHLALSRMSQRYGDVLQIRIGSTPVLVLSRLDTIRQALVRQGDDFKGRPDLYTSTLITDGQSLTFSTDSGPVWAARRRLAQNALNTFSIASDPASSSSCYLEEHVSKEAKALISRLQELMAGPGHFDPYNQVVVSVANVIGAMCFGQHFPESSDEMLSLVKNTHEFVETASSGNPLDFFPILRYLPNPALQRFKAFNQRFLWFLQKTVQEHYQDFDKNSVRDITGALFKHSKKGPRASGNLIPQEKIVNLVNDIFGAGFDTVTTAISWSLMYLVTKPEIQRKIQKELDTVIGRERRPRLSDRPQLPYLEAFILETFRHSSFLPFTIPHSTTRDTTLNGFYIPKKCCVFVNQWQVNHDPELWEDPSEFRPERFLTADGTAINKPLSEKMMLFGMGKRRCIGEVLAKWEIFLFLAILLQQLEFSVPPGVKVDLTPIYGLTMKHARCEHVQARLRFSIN

CYP2D6 [10] = biological target: T4, CYP2D6 (Homo sapiens, UniProt P10635); settings: Table 4; Yu et al.; cited from earlier work
[11] = rat; Table 4; Yu et al.; cited from earlier work
[12] = Table 4; Yu et al.; cited from earlier work; remark: listed apart in the source
[13] = rat; Table 4; Yu et al.; cited from earlier work; remark: listed apart in the source
[14] = i.v. administration in rat, 0.5 mg/kg; Yu et al.; cited from earlier work
CYP3A4 [15] = biological target: T5, CYP3A4 (Homo sapiens, UniProt P08684); settings: Table 4; Yu et al.; cited from earlier work
[16] = Stability in simulated gastric fluid; settings: Table 7
[17] = Microsomal stability, human
[18] = Stability in simulated intestinal fluid; settings: Table 7
mP2Y14R [19] = biological target: T6, mP2Y14R (Mus musculus, UniProt Q9ESG6); test: cell-based; settings: read-out: mP2Y14R, IC50; Table 6; whole mP2Y14R-HEK cells, 200 nM of 3, mean ± SEM, n = 3-6
T6 sequence (Q9ESG6 1-338): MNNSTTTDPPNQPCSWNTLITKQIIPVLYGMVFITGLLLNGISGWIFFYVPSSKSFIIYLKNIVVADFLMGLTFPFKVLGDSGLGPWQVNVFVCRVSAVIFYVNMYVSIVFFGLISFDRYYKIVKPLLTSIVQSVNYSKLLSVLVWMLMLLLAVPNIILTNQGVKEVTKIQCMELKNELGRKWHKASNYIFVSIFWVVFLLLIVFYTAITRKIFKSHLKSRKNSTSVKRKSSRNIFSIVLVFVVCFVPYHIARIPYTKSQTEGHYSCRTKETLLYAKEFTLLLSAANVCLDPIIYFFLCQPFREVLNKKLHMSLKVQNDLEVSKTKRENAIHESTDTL
Description: Desirably, receptor affinity is maintained across species, facilitating performance in in vivo preclinical testing in small animals, with the mouse being the most commonly used species in initial evaluation.

CYP2D6 [20] = biological target: T4, CYP2D6; test: CYP2D6 inhibition; type: in vitro ADME; settings: Table 7
CYP3A4 [21] = biological target: T5, CYP3A4; test: CYP3A4 inhibition; type: in vitro ADME; settings: Table 7
[22] = test system: CCI-induced mechano-allodynia; test: Chronic constriction injury (CCI) mouse model of neuropathic pain; settings: 10 μmol/kg, i.p.
Plasma stability, rat = settings: Table 7
CYP2C19 [23] = biological target: T2, CYP2C19; test: CYP2C19 inhibition; type: in vitro ADME; settings: Table 7
[24] = Plasma protein binding, human; type: in vitro ADME
[25] = In vivo half-life by administration mode (Table 7)
[26] = Plasma protein binding, mouse; type: in vitro ADME
hP2Y14R [27] = biological target: T7, hP2Y14R (Homo sapiens, UniProt Q15391); test: Inhibition of fluorescent antagonist binding in whole hP2Y14R-expressing CHO cells (flow cytometry)
T7 construct: expressed in transfected cells; host or cells: CHO cells
T7 sequence (Q15391 1-338): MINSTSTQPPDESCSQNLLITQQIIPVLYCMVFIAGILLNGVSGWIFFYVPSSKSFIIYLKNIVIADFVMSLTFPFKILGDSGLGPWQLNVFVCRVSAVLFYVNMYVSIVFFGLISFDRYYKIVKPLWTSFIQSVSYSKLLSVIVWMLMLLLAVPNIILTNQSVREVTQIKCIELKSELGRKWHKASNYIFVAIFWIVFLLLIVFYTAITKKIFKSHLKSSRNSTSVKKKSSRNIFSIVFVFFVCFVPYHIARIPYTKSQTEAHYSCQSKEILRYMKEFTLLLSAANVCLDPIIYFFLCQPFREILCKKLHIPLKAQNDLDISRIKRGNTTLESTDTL

CYP2C9 [28] = biological target: T1, CYP2C9; test: CYP2C9 inhibition
hERG ion channel = hERG ion channel (Homo sapiens, UniProt Q12809); test: hERG ion channel block, patch clamp assay
[29] = Microsomal stability, mouse; type: in vitro ADME; settings: Table 7
CYP1A2 [30] = biological target: T3, CYP1A2; test: CYP1A2 inhibition; type: in vitro ADME; settings: Table 7
[31] = Plasma protein binding, rat; type: in vitro ADME
Plasma stability, mouse = settings: Table 7
[32] = Microsomal stability, rat; type: in vitro ADME; settings: Table 7
[33] = Aqueous solubility, pION method
hERG = hERG (Homo sapiens, UniProt Q12809); test: hERG inhibition, fluorescent method; type: binding; settings: Table 7
[34] = HPLC-based lipophilicity (Log D7.4)
hP2Y14R [35] = biological target: T7, hP2Y14R; settings: Table 2; data from Jung et al. and Mufti et al.; cited from earlier work
mP2Y14R [36] = biological target: T6, mP2Y14R; set-up: expressed in transfected cells; settings: Table 2; data from Jung et al. and Mufti et al.; cited from earlier work
[37] = first value of the cell (mode not given; by the column of 4: i.p.)
[38] = second value of the cell (mode not given; by the column of 4: i.v., 0.5 mg/kg)
[39] = Table 6, fluorescent hP2Y14R antagonist (3), read-out: hP2Y14R, IC50

T2 sequence (P33261 whole entry): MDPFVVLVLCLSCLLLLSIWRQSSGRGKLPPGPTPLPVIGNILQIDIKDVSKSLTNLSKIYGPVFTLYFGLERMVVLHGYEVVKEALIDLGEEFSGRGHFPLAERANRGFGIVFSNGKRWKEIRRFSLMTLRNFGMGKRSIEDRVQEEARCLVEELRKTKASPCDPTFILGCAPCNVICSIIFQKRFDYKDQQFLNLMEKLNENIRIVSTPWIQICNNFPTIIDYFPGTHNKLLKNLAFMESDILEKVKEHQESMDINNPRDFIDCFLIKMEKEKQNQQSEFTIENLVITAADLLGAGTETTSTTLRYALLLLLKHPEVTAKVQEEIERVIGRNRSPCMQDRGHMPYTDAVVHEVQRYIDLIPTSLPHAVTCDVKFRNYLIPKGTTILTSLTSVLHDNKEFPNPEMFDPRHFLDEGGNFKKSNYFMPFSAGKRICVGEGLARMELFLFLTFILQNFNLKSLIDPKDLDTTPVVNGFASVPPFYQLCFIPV
T5 sequence (P08684 whole entry): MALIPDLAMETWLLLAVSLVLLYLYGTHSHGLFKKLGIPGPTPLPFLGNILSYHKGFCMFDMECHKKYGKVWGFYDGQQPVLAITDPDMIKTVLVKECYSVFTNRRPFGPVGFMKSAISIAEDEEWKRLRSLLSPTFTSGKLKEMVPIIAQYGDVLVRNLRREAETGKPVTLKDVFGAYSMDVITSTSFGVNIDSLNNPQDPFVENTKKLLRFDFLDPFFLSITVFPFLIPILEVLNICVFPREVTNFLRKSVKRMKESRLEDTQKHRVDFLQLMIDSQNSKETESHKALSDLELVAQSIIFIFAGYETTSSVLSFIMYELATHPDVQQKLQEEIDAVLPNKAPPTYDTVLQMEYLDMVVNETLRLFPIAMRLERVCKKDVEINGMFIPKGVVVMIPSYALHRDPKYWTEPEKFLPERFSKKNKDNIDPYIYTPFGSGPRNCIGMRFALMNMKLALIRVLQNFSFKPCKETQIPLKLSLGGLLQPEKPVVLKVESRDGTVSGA
T1 sequence (P11712 whole entry): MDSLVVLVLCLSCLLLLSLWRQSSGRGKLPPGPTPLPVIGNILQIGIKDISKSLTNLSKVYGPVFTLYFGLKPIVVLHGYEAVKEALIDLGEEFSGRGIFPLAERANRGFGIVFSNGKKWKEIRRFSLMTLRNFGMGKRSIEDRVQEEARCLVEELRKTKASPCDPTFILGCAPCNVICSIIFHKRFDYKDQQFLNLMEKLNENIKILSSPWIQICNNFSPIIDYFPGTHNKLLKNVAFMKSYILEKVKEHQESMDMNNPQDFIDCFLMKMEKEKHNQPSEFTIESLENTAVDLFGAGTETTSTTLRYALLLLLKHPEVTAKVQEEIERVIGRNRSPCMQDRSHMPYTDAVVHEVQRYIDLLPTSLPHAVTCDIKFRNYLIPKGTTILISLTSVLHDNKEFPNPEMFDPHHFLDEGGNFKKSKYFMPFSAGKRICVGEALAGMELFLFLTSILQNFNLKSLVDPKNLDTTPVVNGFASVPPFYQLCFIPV
T4 sequence (P10635 whole entry): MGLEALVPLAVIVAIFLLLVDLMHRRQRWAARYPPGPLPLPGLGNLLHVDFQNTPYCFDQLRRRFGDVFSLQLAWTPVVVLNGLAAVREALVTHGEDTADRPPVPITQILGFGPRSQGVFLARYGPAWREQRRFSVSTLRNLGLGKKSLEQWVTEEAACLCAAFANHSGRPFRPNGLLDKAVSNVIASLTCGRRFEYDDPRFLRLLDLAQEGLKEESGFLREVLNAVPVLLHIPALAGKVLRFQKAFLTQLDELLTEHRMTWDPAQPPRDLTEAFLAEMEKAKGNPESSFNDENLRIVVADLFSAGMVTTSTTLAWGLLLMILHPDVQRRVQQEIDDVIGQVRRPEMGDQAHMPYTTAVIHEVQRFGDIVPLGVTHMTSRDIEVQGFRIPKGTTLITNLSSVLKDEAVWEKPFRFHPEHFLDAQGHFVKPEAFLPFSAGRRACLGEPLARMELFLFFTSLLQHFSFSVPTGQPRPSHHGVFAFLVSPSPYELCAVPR
hERG, sequence (Q12809 whole entry): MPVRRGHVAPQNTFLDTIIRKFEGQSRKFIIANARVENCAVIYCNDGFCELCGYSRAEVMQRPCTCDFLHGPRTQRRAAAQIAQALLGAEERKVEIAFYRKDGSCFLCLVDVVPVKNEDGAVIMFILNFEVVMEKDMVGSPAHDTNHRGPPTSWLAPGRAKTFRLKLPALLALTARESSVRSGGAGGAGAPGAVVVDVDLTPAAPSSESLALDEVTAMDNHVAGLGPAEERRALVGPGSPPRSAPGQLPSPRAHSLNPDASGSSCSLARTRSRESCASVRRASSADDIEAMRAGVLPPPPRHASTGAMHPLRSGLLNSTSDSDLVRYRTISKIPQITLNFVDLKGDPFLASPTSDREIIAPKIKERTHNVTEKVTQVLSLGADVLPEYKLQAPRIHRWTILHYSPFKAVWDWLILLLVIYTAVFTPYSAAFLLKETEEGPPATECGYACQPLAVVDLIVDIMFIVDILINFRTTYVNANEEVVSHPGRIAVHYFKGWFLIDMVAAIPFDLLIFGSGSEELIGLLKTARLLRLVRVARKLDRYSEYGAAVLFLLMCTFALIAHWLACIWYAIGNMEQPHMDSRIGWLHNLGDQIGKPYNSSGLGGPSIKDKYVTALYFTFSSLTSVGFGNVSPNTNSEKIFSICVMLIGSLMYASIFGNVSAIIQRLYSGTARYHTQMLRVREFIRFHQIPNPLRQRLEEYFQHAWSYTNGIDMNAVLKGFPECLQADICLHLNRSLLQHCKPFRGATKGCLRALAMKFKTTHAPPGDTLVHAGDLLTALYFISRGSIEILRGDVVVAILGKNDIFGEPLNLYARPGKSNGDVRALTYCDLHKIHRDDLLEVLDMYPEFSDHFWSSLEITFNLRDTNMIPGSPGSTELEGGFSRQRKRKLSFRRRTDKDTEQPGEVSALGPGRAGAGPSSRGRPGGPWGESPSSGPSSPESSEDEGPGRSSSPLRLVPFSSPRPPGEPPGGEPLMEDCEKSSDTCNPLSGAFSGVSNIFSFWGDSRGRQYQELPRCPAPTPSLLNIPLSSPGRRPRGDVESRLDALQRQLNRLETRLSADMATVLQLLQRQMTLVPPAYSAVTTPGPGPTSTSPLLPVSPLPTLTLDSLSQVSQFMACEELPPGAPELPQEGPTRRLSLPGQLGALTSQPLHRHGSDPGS
hERG ion channel, sequence (Q12809 whole entry): as above

Row | SMILES | Simulated intestinal fluid (% remaining at 120 min) [18] [%] | IC50 (mP2Y14R [19]) [µM] | IC50 (CYP2D6 [20]) [µM] | IC50 (CYP3A4 [21]) [µM] | Plasma stability (% remaining at 120 min) (Plasma stability, rat) [%] | IC50 (CYP2C19 [23]) [µM] | Human, % bound (±SD) [24] [%] | t1/2 (h), administration mode [25, 37] [h] | t1/2 (h), administration mode [25, 38] [h] | Mouse, % bound (±SD) [26] [%] | IC50 (hP2Y14R [27]; [39]) [µM] | IC50 (CYP2C9 [28]) [µM] | Microsomal stability (t1/2, min) [29] [min] | IC50 (CYP1A2 [30]) [µM] | Rat, % bound (±SD) [31] [%] | Plasma stability (% remaining at 120 min) (Plasma stability, mouse) [%] | Microsomal stability (t1/2, min) [32] [min] | Solubility (ug/mL) pH 4 [33] [ug/mL] | Solubility (ug/mL) pH 7.4 [33] [ug/mL] | IC50 (hERG) [µM] | further results
1 | NC(=O)c1ccc(-c2cc(C(=O)O)cc(-n3cc(-c4ccc(C(F)(F)F)cc4)nn3)c2)cc1 [Compound 5] | – | – | – | – | – | – | – | – | – | – | – | – | – | – | – | – | – | – | – | – | aqueous solubility (pH 7.4, μg/mL) ([1]; mean ± SD, Table 4, Yu et al.): 138 ± 4 μg/mL; IC50 (CYP2C9 [2]): > 30 µM; Plasma stability (t1/2, min) ([3]; Table 4, Yu et al.): >240 (h); >240 (r); min; IC50 (CYP2C19 [4]): > 30 µM; Microsomal stability (t1/2, min) ([5]; Table 4, Yu et al.): 145 (h) min; Microsomal stability (t1/2, min) ([6]; Table 4, Yu et al.): 145 min; Plasma stability (t1/2, min) ([7]; Table 4, Yu et al.): >240 (m) min; Simulated gastric fluid (t1/2, min) [8]: >240 min; IC50 (CYP1A2 [9]): > 30 µM; IC50 (CYP2D6 [10]): > 30 µM; Microsomal stability (t1/2, min) [11]: 108 min; Simulated intestinal fluid (t1/2, min) [12]: >240 min; Plasma stability (t1/2, min) [13]: >240 (h); >240 (r); min; t1/2 [14]: 0.20 h; IC50 (CYP3A4 [15]): > 30 µM
2 | O=C(O)c1cc(-c2ccc([C@H]3C[C@H]4C[C@@H]3CN4)cc2)c2ccc(-c3ccc(C(F)(F)F)cc3)cc2c1 [Compound 114, 4-(4-((1S,4S,5S)-2-Azabicyclo[2.2.1]heptan-5-yl)phenyl)-7-(4-(trifluoromethyl)phenyl)-2-naphthoic acid] | 99.1 | 0.0339 ± 0.0046 | > 30 | > 30 | 82.8 | > 30 | 87.98 ± 10.29 | 8.94 | 7.24 | 99.76 ± 0.03 | 0.00311 ± 0.00062 | > 30 | 243 | > 30 | 99.79 ± 0.02 | 100 | 91.0 | 1.22 ± 0.05 | 0.77 ± 0.21 | > 30 | Simulated gastric fluid (% remaining at 120 min) ([16]; aqueous acid stability determined by NMR): 100^e %; Microsomal stability (t1/2, min) ([17]; Table 7): 280 (h) min; side effects [22]: No obvious side effects were observed; reversal of mechano-allodynia (figure legend) ([22]; day 7 post-injury): reversed the established mechano-allodynia; IC50 (hERG ion channel): > 30 µM; chromatographic logD ([34]; pH 7.4): 1.92 ± 0.09
3 | O=C(O)c1cc(-c2ccc([C@@H]3C[C@@H]4C[C@H]3NC4=O)cc2)c2ccc(-c3ccc(C(F)(F)F)cc3)cc2c1 [Compound 121, 4-(4-((1R,4R,6S)-3-Oxo-2-azabicyclo[2.2.1]heptan-6-yl)phenyl)-7-(4-(trifluoromethyl)phenyl)-2-naphthoic acid] | 100 | 0.0429 ± 0.007 | > 30 | > 30 | 74.7 | > 30 | 98.89 ± 0.50 | 4.59 | 2.11 | 99.74 ± 0.04 | 0.0373 ± 0.006 | > 30 | > 1000 | > 30 | 96.18 ± 0.32 | 74.1 | 89.4 | – | – | > 30 | Simulated gastric fluid (% remaining at 120 min) [16]: 59.3%; half-life ([17]; liver microsomes): 14.2 h
4 | O=C(O)c1cc(-c2ccc(C34CCN(CC3)CC4)cc2)c2ccc(-c3ccc(C(F)(F)F)cc3)cc2c1 [Compound 4] | – | – | – | – | – | – | – | – | – | – | – | – | – | – | – | – | – | 1.50 ± 0.04 | 0.55 ± 0.02 | – | aqueous solubility (pH 4.0, μg/mL) ([1]; pH 4.0, Table 7, Jung et al. 2020): 14.3 ± 0.5 μg/mL; aqueous solubility (pH 7.4, μg/mL) ([1]; Table 7, Jung et al. 2020): 0.44 ± 0.06 μg/mL; IC50 (hP2Y14R [35]): 0.169 ± 0.042 µM; IC50 (mP2Y14R [36]): 0.384 ± 0.088 µM; IC50 (hP2Y14R [27]; Example 5 table, whole cell fluorescent binding assay, read-out: IC50): 0.02 ± 0.0044 µM; IC50 (hP2Y14R [27]; Table 2, whole hP2Y14R-CHO cells, 20 nM fluorescent antagonist 3, mean+SEM, n = 3-6, read-out: IC50): 0.02 ± 0.0044 µM; Plasma stability (% remaining at 120 min) ([3]; Table 7, Jung et al. 2020): 100%; Microsomal stability (t1/2, min) ([5]; Table 7, Jung et al. 2020): 8 >240 (h) min; Microsomal stability (t1/2, min) ([6]; Table 7, Jung et al. 2020): 67.2 min; Plasma stability (% remaining at 120 min) ([7]; Table 7, Jung et al. 2020): 100 (m) %; Log D7.4 ([34]; calculated from retention factor difference between ligands and 1 (k = 3.41)): 4.18 ± 0.85^f
